The values that follow come from paper PMC4663080 (Journal of enzyme inhibition and medicinal chemistry, 2010).

Test [1] concerns the target T1, Electrophorus electricus AChE (Electrophorus electricus, UniProt O42275). It is filed as biochemical.
In test [2] the test system is AChE. Particulars: rat synaptosomal membrane as enzyme source; cited from earlier work.
The target of test [3] is T1, Electrophorus electricus AChE. The experiment in a line: Steady-state enzyme kinetics of AChE in the presence of nantenine. It is filed as biochemical.
Test [4] deals with AChE (Electrophorus electricus, UniProt O42275). The experiment in a line: TLC anticholinesterase bioautographic assay. The class given is biochemical. Particulars: compared with galanthamine (1).
Sequence of AChE (Electrophorus electricus, UniProt O42275) (O42275 24-633): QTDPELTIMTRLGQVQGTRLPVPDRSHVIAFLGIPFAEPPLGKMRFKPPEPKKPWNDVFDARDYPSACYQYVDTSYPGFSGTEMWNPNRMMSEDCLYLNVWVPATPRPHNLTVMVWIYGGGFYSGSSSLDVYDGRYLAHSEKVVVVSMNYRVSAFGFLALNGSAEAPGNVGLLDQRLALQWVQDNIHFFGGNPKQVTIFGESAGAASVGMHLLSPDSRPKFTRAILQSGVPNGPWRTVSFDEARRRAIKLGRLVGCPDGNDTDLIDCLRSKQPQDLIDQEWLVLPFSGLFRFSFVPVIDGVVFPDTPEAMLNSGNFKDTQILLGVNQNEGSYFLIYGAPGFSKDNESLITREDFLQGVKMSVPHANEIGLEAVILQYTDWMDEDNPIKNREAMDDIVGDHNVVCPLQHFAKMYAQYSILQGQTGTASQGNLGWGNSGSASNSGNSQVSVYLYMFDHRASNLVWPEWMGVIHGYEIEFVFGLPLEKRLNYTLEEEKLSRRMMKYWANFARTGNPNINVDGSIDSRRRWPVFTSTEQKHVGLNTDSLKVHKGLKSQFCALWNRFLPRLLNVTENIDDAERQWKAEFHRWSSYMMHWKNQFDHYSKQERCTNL

T1 sequence (O42275 24-633): as above

For the compound `COc1cc2c(c(-c3ccc4c(c3)OCO4)c1OC)CN(C)CC2` [Compound 15a, 8-(benzo[d][1,3]dioxol-5-yl)-6,7-dimethoxy-2-methyl-1,2,3,4-tetrahydroisoquinoline], in test [1], the “fold less active than nantenine (AChE inhibition)” value is on record as “approximately two-fold”.
`COc1cc2c(c(-c3ccc4c(c3)OCO4)c1OC)C(C)N(C)CC2` (stereo not drawn) [Compound 15b, 8-(benzo[d][1,3]dioxol-5-yl)-6,7-dimethoxy-1,2-dimethyl-1,2,3,4-tetrahydroisoquinoline]: the “fold less active than nantenine (AChE inhibition)” value in test [1] is given as “approximately two-fold”.
As to `COc1cc2c3c(c1OC)-c1cc4c(cc1CC3N(C)CC2)OCO4` (stereo not drawn) [Nantenine (8), nantenine], the “activity in AChE assay” value in the test with AChE [2] is “inactive”. Moreover, in test [3], the Ki was 18.7 µM. For the same compound, in test [3] (Lineweaver-Burk plot), the mode of inhibition result is recorded as “mixed inhibition”. At AChE [4], the “activity in TLC anticholinesterase bioautographic assay” value is reported as “showed activity”.

Broadly, the Ki is a measure of affinity in units of concentration, obtained from inhibition or displacement.
